ChEMBL document CHEMBL1201862, “PubChem BioAssay data set” (2004)
Active and inactive are the calls of the source.

Legend:
[1] = target: Genome polyprotein (Hepatitis C virus, UniProt Q2Q167); assay: HCV core protein dimerization inhibitors, dose response, biochemical, TR-FRET (AID 2159); set-up: species or system Hepacivirus hominis;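 further: blocks dimerization of HCV core protein measured by TR-FRET between tagged core106 pairs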
[2] = target: Ephrin type-A receptor 4 (Mus musculus, UniProt Q03137); assay: inhibitors of EphA4 binding to KYL peptide, primary screen, biochemical, colorimetric, mouse EphA4 (AID 689); assay type: functional
Ephrin type-A receptor 4, sequence (Q03137 whole entry): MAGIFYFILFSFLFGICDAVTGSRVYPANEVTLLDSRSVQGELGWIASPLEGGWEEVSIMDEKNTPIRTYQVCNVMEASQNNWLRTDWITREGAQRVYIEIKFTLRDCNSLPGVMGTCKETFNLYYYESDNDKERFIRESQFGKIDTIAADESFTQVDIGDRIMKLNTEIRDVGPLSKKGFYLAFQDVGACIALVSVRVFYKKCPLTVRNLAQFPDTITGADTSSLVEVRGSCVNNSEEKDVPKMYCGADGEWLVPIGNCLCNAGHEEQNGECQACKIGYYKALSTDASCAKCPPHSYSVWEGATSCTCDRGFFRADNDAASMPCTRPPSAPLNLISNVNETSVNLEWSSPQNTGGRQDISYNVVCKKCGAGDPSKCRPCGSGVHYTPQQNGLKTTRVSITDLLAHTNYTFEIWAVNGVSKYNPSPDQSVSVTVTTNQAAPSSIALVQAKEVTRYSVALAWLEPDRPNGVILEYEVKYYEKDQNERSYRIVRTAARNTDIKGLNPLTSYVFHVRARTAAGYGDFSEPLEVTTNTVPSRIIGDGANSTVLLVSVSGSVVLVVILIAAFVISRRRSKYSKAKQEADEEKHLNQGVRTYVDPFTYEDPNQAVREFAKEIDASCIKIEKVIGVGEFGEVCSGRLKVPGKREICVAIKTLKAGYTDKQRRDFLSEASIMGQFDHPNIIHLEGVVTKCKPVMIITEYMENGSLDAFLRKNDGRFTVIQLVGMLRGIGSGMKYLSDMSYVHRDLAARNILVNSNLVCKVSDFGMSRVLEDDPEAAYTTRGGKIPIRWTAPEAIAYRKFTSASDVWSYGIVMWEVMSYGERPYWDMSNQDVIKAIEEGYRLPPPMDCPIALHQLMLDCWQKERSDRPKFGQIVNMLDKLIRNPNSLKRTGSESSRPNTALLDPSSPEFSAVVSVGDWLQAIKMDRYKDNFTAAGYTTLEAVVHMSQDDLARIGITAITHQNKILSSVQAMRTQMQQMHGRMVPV

[3] = target: Induced myeloid leukemia cell differentiation protein Mcl-1 (Homo sapiens, UniProt Q07820); assay type: functional
Induced myeloid leukemia cell differentiation protein Mcl-1, sequence (Q07820 whole entry): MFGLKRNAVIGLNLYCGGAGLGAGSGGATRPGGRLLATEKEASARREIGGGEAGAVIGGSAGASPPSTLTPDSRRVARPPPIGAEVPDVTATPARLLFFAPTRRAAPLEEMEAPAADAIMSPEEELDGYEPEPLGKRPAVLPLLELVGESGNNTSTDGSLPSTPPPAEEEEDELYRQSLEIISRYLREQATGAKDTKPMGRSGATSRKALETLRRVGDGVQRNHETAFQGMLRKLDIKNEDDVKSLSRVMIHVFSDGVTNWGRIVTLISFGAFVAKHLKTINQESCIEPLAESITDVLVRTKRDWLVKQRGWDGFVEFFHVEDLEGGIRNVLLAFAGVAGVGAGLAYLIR

[4] = target: Protein Tat (Human immunodeficiency virus type 1 group M subtype B (isolate HXB2)(HIV-1), UniProt P04608); assay type: functional;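 further: tat binding to TAR RNA read out by fluorescence polarization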
Protein Tat, sequence (P04608 whole entry): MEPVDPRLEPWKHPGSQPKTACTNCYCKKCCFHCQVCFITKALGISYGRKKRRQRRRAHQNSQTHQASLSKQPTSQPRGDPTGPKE

[5] = target: Cytochrome P450 2D6 (Homo sapiens, UniProt P10635);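 further: CYP2D6 member of a cytochrome P450 panel assay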
Cytochrome P450 2D6, sequence (P10635 whole entry): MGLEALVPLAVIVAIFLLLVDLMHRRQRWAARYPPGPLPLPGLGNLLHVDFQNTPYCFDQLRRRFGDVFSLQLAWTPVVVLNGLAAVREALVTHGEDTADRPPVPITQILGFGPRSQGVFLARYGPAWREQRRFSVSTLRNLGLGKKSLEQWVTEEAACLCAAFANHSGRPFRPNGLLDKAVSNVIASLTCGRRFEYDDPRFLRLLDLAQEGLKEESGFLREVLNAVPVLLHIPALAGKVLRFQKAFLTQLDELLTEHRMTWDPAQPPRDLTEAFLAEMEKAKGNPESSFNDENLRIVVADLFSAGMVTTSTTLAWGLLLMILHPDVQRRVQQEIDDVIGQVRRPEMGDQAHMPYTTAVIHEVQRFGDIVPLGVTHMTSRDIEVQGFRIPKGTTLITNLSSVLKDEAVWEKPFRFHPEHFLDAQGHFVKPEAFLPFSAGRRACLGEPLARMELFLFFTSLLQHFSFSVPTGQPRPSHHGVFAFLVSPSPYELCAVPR

[6] = target: Caspase-6 (Homo sapiens, UniProt P55212); assay: human caspase-6 inhibitors, dose response, biochemical, VEID-R110 fluorescence, cherry-pick (AID 720632)
Caspase-6, sequence (P55212 24-179 limits assumed): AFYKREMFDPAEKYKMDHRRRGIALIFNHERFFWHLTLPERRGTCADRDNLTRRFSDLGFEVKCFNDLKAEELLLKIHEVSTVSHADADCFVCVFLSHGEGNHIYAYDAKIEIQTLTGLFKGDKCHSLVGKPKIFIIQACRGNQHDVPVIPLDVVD
Caspase-6, sequence (P55212 194-293 limits assumed): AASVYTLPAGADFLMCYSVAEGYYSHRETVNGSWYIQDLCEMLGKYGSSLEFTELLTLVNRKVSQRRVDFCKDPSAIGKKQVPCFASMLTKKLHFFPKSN

[7] = target: Kallikrein-7 (Homo sapiens, UniProt P49862); assay: Fluorescence Intensity-based biochemical primary high throughput dose response assay to identify activators of kallikrein-7 (K7) zymogen.
Kallikrein-7, sequence (P49862 whole entry): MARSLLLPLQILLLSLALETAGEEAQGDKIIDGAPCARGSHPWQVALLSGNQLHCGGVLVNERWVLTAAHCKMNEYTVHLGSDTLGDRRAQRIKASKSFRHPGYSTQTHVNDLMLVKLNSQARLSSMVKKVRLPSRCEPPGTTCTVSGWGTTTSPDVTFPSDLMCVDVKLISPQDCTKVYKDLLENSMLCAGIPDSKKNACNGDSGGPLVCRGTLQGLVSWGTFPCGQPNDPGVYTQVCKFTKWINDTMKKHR

[8] = Luminescence-based cell-based high throughput dose response assay to identify activators of the DAF-12 from the parasite S. stercoralis (ssDAF-12).; assay type: functional
[9] = cells
[10] = target: T1, Oxysterols receptor LXR-beta (Homo sapiens, UniProt P55055); assay type: functional, cell-based;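 further: Cell-based luminescence dose-response assay of agonist activity at LXR, run as a confirmatory counterscreen to a daf-12 agonist screen; HEK293 cells with Gal4-LXR fusion and GAL4-driven luciferase reporter; agonist potency from rising luciferase signal of a Gal4-LXR reporter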
T1 sequence (P55055 whole entry): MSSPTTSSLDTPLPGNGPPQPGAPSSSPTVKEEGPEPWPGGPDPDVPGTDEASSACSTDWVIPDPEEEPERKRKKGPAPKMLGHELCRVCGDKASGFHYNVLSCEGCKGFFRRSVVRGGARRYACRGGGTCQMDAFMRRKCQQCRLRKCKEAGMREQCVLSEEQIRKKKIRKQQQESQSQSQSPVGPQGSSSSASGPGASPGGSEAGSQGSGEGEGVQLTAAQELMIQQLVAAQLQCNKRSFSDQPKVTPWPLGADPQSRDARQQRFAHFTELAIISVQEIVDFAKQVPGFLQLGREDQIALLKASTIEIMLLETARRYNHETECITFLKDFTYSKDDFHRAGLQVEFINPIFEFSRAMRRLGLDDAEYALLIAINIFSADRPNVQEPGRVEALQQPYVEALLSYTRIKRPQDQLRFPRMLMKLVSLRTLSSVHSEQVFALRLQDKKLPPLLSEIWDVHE

[11] = cells; remark: listed apart in the source
[12] = test system: Streptococcus sp. 'group A'; assay: growth inhibition of control SK(-) GAS strain, dose response, counter-screen for streptokinase expression inhibitor project, luminescence, kanamycin, BacTiterGlo, confirmation (AID 1900); assay type: functional, organism-based
[13] = target: T2, Streptokinase A (Streptococcus pyogenes serotype M1, UniProt P10520); assay: S. pyogenes streptokinase expression inhibitors, potency, dose response, plasminogen activation absorbance, OD405 (AID 1914); assay type: functional, Streptococcus pyogenes M1 GAS;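 further: secreted streptokinase activity via plasminogen activation per viability signal from cell pellet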
T2 sequence (P10520 whole entry): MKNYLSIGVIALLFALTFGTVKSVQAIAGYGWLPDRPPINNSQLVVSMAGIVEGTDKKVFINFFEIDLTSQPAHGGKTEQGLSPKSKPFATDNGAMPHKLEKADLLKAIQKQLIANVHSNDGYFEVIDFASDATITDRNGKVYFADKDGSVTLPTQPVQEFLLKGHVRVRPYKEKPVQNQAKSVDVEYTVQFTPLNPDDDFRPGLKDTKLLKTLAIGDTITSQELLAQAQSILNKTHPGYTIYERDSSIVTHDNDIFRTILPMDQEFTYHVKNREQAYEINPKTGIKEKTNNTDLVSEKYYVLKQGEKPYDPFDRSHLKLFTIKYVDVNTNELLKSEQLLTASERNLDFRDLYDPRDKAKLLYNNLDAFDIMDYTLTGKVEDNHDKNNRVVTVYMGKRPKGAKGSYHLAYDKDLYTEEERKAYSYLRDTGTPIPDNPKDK

[14] = inhibitors of intracellular T. cruzi replication, confirmation, NIH3T3 host cells, beta-gal luminescence (AID 2044); assay type: functional, cell-based;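 further: intracellular parasites grown in NIH/3T3 mouse fibroblasts as host cells; luminescent beta-galactosidase reporter signal from transgenic T. cruzi replicating inside host cells; inhibitors lower the luminescence signal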
[15] = cytotoxicity toward NIH3T3 fibroblasts, dose response, counter-screen, cell-based, ATP luminescence, mouse fibroblasts (AID 2010); assay type: functional;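 further: cells exposed to compound for about 90 hours before reading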
[16] = test system: Streptococcus; assay: Group A Streptococcus viability loss, dose response, counter-screen for streptokinase expression inhibitor project, luminescence, BacTiterGlo (AID 1915); assay type: functional, organism-based;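 further: potency for reduction of bacterial viability or growth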
[17] = HepG2 cell cytotoxicity, dose response, cytotoxicity control, ATP luminescence, cherry-pick, activator set 2 (AID 1053143); assay type: functional, cell-based
[18] = Luminescence Cell-Based Dose Retest to Confirm Inhibitors of Cancer Stem Cells. [Related pubchem assays (depositor defined):AID2717, AID2721]; assay type: functional; details: Homo sapiens
[19] = miR-122 activators in hepatoma reporter cells, dose response, cell-based, Huh7 psiCHECK-miR122, Renilla luciferase, cherry-picked (AID 651956); assay type: functional;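 further: huh7 hepatoma cells stably carrying a psiCHECK-2 miR-122 sensor plasmid; renilla luciferase signal reporting endogenous miR-122 activity after 48 h compound exposure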
[20] = HEK293T cytotoxicity, dose response, cytotoxicity control for miR-122 modulator project, cell-based, activator set, cherry-pick (AID 720690); assay type: functional;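 further: HEK293T human cells scored for general mammalian cytotoxicity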
[21] = target: Luciferin 4-monooxygenase (Photinus pyralis, UniProt P08659); assay: Counter Screen for Luciferase-based Assay Positives. [Related pubchem assays: 620, 618, 411 ]
[22] = test system: HT-1080; assay: cytotoxicity in HT1080 fibrosarcoma cells, cell-based, fluorescence readout (AID 620); assay type: functional; details: Homo sapiens
[23] = target: Paired box protein Pax-8 (Homo sapiens, UniProt Q06710); assay: inhibitors of PAX8-driven TPO luciferase reporter, dose response, RMG-I cells, cherry-pick (AID 687027); assay type: functional, cell-based;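 further: luciferase reporter driven by Pax8 target thyroperoxidase promoter measured by SteadyGlo luminescence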
Paired box protein Pax-8, sequence (Q06710 whole entry): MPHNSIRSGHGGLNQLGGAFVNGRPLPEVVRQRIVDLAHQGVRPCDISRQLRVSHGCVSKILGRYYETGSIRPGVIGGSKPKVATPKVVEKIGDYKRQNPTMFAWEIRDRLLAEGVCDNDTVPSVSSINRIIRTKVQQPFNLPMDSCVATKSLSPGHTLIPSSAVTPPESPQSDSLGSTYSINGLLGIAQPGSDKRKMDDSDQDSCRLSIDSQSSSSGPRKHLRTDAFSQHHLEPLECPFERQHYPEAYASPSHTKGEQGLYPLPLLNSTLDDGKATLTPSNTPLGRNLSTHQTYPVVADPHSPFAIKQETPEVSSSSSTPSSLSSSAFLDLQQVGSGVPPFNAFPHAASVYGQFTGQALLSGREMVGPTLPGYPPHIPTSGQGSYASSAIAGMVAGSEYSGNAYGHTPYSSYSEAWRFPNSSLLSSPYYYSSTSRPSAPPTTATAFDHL

[24] = NIH:OVCAR-3 ovarian cancer cell cytotoxicity, dose response, PAX8 inhibitor project, plate reader, dry powder samples (AID 743044); assay type: functional, cell-based
[25] = IGROV1 ovarian cancer cell cytotoxicity, dose response, PAX8 inhibitor project, plate reader, dry powder samples (AID 743043); assay type: functional, cell-based; details: IGROV-1
[26] = cytotoxicity in OVCAR8 ovarian cancer cells, dose response, PAX8 project, cell-based, plate reader, dry powder samples (AID 743197); assay type: functional; details: OVCAR-8
[27] = HEK293 cell cytotoxicity, dose response, cytotoxicity control, cherry-picks, set 5 (AID 1053117); assay type: functional, cell-based
[28] = inhibitors of PGC1a acetylation in cells, dose response, cell-based, cherry-picked samples (AID 720514); assay type: functional;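 further: potency may reflect raised or lowered acetylation signal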
[29] = inhibitors of fibronectin matrix deposition, dose response, AH1F cells, Alexa488-FN fluorescence, cherry-picks (AID 1035475); assay type: functional, cell-based
[30] = P. falciparum Dd2 growth inhibitors, dose response, SYBR Green, cherry-picked samples (AID 1159567); assay type: functional, cell-based
[31] = HepG2 cell cytotoxicity, dose response, cytotoxicity control, cherry-picked samples (AID 1159577); assay type: functional, cell-based
[32] = target: Peroxisome proliferator-activated receptor gamma/Nuclear receptor coactivator 2 (Homo sapiens, UniProt P37231); assay type: functional;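 further: agonist potency for raising coactivator recruitment to the receptor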
[33] = target: Peroxisome proliferator-activated receptor gamma/Nuclear receptor coactivator 1 (Homo sapiens, UniProt P37231); assay type: functional;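 further: agonist potency as compounds enhance coactivator SRC-1 recruitment to PPARgamma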
[34] = Luminescence Cell-Based Dose Confirmation HTS to Identify Activators of 5'UTR Stem-Loop Driven Alpha-Synuclein mRNA Translation in H4 Neuroglioblastoma Cells. [Related pubchem assays: 1829 (Project Summary), 1814 (Primary HTS)]; assay type: functional
[35] = Luminescence Cell-Based Dose Response HTS to Identify Activators of Luciferase Translation or Activity in H4 […] Cells. [Related pubchem assays: 1829 (Project Summary), 1814 (Primary HTS)]; assay type: functional
[36] = target: Peroxisome proliferator-activated receptor gamma/Nuclear receptor coactivator 3 (Homo sapiens, UniProt P37231); assay type: functional;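 further: agonist potency for raising coactivator recruitment to the receptor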
Peroxisome proliferator-activated receptor gamma/Nuclear receptor coactivator 3, sequence (P37231 whole entry): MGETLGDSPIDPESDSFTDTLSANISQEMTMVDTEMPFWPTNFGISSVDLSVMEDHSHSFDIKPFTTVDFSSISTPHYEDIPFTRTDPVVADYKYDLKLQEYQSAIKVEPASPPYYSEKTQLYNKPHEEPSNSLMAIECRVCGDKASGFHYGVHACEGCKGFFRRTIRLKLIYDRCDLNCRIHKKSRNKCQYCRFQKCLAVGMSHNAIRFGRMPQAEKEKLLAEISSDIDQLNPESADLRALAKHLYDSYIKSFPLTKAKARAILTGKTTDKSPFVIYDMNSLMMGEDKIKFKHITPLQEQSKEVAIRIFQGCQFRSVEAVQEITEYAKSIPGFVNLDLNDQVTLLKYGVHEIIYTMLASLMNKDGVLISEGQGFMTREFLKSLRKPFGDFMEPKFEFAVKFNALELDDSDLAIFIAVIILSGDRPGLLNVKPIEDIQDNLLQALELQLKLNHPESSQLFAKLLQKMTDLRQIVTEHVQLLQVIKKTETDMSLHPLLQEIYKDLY
Peroxisome proliferator-activated receptor gamma/Nuclear receptor coactivator 3, sequence (Q9Y6Q9 whole entry, further chain): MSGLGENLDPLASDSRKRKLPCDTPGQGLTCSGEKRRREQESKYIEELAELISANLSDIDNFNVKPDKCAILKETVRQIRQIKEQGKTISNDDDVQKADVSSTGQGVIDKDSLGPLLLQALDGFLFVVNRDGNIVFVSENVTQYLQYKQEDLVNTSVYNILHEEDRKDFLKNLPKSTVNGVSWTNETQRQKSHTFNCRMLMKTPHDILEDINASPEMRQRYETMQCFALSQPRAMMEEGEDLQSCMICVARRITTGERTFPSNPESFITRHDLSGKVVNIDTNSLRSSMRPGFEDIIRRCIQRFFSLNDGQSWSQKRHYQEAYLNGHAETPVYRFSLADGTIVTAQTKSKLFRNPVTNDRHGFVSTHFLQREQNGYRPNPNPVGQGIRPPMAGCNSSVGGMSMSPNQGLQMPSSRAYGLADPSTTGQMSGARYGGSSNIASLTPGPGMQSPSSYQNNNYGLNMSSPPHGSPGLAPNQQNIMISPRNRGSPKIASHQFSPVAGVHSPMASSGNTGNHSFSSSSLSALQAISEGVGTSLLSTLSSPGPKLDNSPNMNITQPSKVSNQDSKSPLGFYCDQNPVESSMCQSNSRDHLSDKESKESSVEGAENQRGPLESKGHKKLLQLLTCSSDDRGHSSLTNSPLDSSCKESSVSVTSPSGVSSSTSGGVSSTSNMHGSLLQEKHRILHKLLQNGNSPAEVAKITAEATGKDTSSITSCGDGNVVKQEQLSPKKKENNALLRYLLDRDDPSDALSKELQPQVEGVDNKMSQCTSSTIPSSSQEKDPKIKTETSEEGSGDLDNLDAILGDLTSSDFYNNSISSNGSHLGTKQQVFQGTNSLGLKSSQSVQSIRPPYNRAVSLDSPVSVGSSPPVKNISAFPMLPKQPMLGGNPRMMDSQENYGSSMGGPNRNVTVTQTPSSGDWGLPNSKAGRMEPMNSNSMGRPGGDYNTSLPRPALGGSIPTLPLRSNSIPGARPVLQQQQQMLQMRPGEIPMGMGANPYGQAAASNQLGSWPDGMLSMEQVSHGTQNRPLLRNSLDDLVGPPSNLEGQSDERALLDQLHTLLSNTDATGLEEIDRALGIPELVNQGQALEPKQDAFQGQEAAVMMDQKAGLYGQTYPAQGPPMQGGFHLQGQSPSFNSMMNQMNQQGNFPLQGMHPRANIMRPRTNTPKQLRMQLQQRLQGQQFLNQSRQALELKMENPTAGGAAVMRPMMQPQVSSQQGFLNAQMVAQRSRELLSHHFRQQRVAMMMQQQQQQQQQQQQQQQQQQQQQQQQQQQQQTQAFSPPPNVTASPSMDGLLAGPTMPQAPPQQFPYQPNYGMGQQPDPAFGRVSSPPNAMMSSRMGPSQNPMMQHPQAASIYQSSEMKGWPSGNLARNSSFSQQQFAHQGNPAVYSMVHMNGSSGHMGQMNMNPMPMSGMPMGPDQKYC

[37] = test system: H4; assay: Luminescence Cell-Based Dose Response HTS to Identify Activators of 5'UTR Stem-Loop Driven Prion Protein mRNA Translation in H4 Neuroglioblastoma Cells. [Related pubchem assays: 1829 (Project Summary), 1814 (Primary HTS)]; assay type: functional; details: Homo sapiens
[38] = cells; details: A549

Genome polyprotein, sequence (Q2Q167 whole entry): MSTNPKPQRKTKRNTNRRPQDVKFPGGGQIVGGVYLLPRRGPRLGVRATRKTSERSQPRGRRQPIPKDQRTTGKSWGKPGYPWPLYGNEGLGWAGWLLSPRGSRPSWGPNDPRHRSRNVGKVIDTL

Cc1cccc2c(N=Nc3ccc(S(=O)(=O)Nc4ccc(Cl)cc4)cc3[N+](=O)[O-])c(O)[nH]c12
IC50 [1]: > 49.8 µM (not active)

CCNc1ccc(Br)cc(C(=O)/C=C/c2ccc3c(c2)OCO3)c1=O
IC50 [2]: 5.22 µM (active)
IC50 [3]: 2.58 µM (active)
IC50 [4]: 29.1 µM (inconclusive)
AC50 [5]: 8.91 µM (inconclusive)

COc1cc(/C=C2\SC(=S)N(Nc3ncc(C(F)(F)F)cc3Cl)C2=O)cc(OC)c1OC
IC50 [2]: 3.57 µM (active)

O=C1CC(C(=O)Nc2ccc(Br)cc2)C2(CCCC2)O1 (configuration not stated)
AC50 [6]: 6.92 µM (active)

Cc1sc(-c2ccncc2)nc1OC(=O)c1ccc(F)cc1F
EC50 [7]: 26.5 µM (inactive)

CCOc1ccc(NC(=O)Cc2cccc3ccccc23)c([N+](=O)[O-])c1
IC50 [8]: > 67.5 µM (inactive)

COC(=O)c1ccc(C)c(NC(=O)CCSc2ccccc2)c1
IC50 [4]: 65.1 µM (inconclusive)

COc1ccc(C2C(C#N)=C(N)Oc3cc(O)ccc32)cc1Cl (configuration not stated)
AC50 [9]: 19.9 µM (active)

Cc1cccc(Nc2nc(-c3ccccc3)cs2)n1
EC50 [10]: > 67.5 µM (inactive)
EC50 [11]: > 67.5 µM (inactive)

O=C(Nc1nc2cc3c(cc2s1)OCCO3)c1ccc([N+](=O)[O-])o1
EC50 [12]: 16.6 µM (active)
EC50 [13]: > 150 µM (not active)
EC50 [14]: 1.78 µM (active)
EC50 [15]: > 60 µM (not active)
EC50 [16]: > 150 µM (not active)
AC50 [17]: 26 µM (active)

COc1ccc(-c2cc(C3CCN(c4ccc(C(C)=O)cc4[N+](=O)[O-])CC3)[nH]n2)cc1
EC50 [12]: 2.74 µM (active)
EC50 [13]: > 150 µM (not active)
EC50 [14]: 1.87 µM (active)
EC50 [15]: > 60 µM (not active)
EC50 [16]: 24.3 µM (active)
AC50 [18]: 2.46 µM (active)
AC50 [19]: 23 µM (active)
AC50 [20]: 17.6 µM (active)

COc1cccc(-c2nc3cc(C)ccc3o2)c1
EC50 [21]: > 100 µM (not active)
EC50 [22]: > 50 µM (not active)
AC50 [17]: 26 µM (active)
EC50 [10]: > 67.6 µM (inactive)
EC50 [11]: > 67.6 µM (inactive)

C[C@H](CO)N1C[C@H](C)[C@@H](CN(C)Cc2ccc(C(F)(F)F)cc2)OCCCC[C@H](C)Oc2ccc(NS(=O)(=O)c3ccc(Cl)cc3)cc2C1=O
AC50 [23]: 7.37 µM (active)
AC50 [24]: 14.5 µM (active)
AC50 [25]: 21.7 µM (active)
AC50 [26]: 34.1 µM (active)

C[C@H]1CN([C@@H](C)CO)C(=O)c2cc(-c3ccccc3)cnc2O[C@@H]1CN(C)C(=O)c1cccc(F)c1
AC50 [27]: > 52 µM (inactive)

C[C@@H]1CN([C@H](C)CO)S(=O)(=O)c2ccc(C3=CCCCC3)cc2O[C@H]1CN(C)Cc1ccccc1
AC50 [28]: 11.4 µM (active)

O=C(Nc1ccccc1F)N1C[C@H]2[C@@H](c3ccccc31)[C@H](CO)N2C(=O)C1CC1
AC50 [29]: > 70 µM (inactive)

CO[C@@H]1CN(C)C(=O)c2ccc(NC(=O)c3ccc(Oc4ccccc4)cc3)cc2OC[C@@H](C)N(C(C)=O)C[C@H]1C
AC50 [28]: 24.2 µM (active)

COc1ccc2c3c([nH]c2c1)[C@H](CO)N(S(=O)(=O)c1ccc(C)cc1)CC31CN(Cc2ccccc2)C1
AC50 [30]: 17.5 µM (active)
AC50 [31]: > 39 µM (inactive)

Cc1ccc(S(=O)(=O)N[C@H]2CC[C@H](CCn3cc(C4CCCC4)nn3)O[C@@H]2CO)cc1
AC50 [30]: 13.6 µM (active)
AC50 [31]: > 39 µM (inactive)

Cc1cccn2c(=O)c3cc(C(=O)NCCN4CCOCC4)c(=N)n(CCc4ccccc4)c3nc12
EC50 [32]: > 79.4 µM (not active)
EC50 [33]: > 79.4 µM (not active)
EC50 [34]: > 120 µM (not active)
EC50 [35]: 11 µM (active)
EC50 [36]: > 79.4 µM (not active)
EC50 [37]: > 120 µM (not active)
AC50 [38]: 31.4 µM (active)
AC50 [9]: 1.28 µM (active)
